Measurements reported in patent US20230321189A1, “THERAPEUTIC AGENTS, PHARMACEUTICAL COMPOSITIONS, AND ASSOCIATED BIOMARKERS BASED ON TRK-B” (INSTITUTO DE MEDICINA MOLECULAR JOÃO LOBO ANTUNES, priority 2020, published 2023).

Tests used:
hippocampal synaptosomes = assay: [3H]glutamate release from hippocampal synaptosomes; format: cell-based, rat; settings: BDNF 30 ng/ml
Experimental: Isolation of Synaptosomes. The synaptosomal fraction from rat hippocampi was prepared as routinely in the lab^3. Hippocampal slices (male Wistar rats, 7-10 weeks old) were prepared and treated with vehicle or Aβ1-42, as described above. Then, slices were added to 5 ml of ice-cold isosmotic sucrose solution (0.32 M, containing 1 mM EDTA, 1 mg/ml BSA, 10 mM HEPES, pH 7.4), and homogenized in a Potter-Elvehjem homogenizer with a Teflon piston (four up-and-down strokes) and the volume completed to 10 ml with the sucrose solution. After a first centrifugation at 3,000 g for 10 min (Heraeus sepatech—Biofuge 28RS centrifuge with 3746 rotor), the supernatant was collected and centrifuged at 14,000 g for 12 min. The whole procedure was conducted at 4° C. The pellet was resuspended in 1 ml 45% Percoll in KHR solution consisting of (in mM) NaCl 140, EDTA 1, HEPES 10, KCl 5, and glucose 5, and centrifuged at 16,000 g for 2 min. The synaptosomal fraction corresponds to the top buoyant layer and was collected from the tube. Percoll was removed by two washes with 1 ml KHR solution centrifuged at 16,000 g for 2 min each; synaptosomes were then kept on ice and used within 3 hours. The synaptosomal protein concentration was assayed using the Bio-Rad DC™ protein assay and BSA as standard.
[^3H]Glutamate Release from Hippocampal Synaptosomes. [3H]Glutamate release from hippocampal synaptosomes was performed as routinely in the lab^39. […]
Calculation of drug effects on glutamate release. At the end of each experiment, aliquots (500 μl) of each sample as well as the filters from each superfusion chamber were analyzed by liquid scintillation counting. The fractional release was expressed as the percentage of total radioactivity present in the synaptosomes at each time point. The amount of radioactivity released by each pulse of K^+ (S1 and S2) was calculated by integration of the area of the peak upon subtraction of the estimated basal tritium release. […]

hippocampal slices = assay: θ-burst Long-Term Potentiation (LTP) in acute hippocampal slices; format: cell-based, rat
Text: Young adult (7-10 weeks old) male Wistar rats were sacrificed by decapitation under deep isoflurane anaesthesia. The brain was quickly removed, hemisected and both hippocampi were dissected free within ice-cold artificial cerebrospinal fluid (aCSF) (mM: NaCl 124; KCl 3; NaH2PO4 1.25; NaHCO326; MgSO4 1; CaCl2 2; and glucose 10), previously gassed with 95% O2 and 5% CO2, pH 7.4.
Slices (400 μm-thick) were cut perpendicularly to the long axis of the hippocampus with a McIlwain tissue chopper and allowed to recover for at least 60 min in a resting chamber, filled with the gassed aCSF, at room temperature (RT) (22-24° C.).
Hippocampal slices were incubated with vehicle or Aβ1-42 (200 nM) species (monomers, oligomers or fibrils) for 3 h at RT in gassed aCSF. We chose to perform slice incubation at RT, to avoid neuronal damage by hypoxic injury^27.
Slices were transferred to a submerging chamber (1 ml) and continuously superfused at a3 ml/min rate with gassed aCSF at 32° C. Perfusion tubes were coated with 0.1 mg/ml BSA prior to experiments to avoid adsorption of BDNF to the tubes^35. Evoked field excitatory postsynaptic potentials (fEPSP) were recorded extracellularly through a microelectrode filled with 4 M NaCl (2-8 MΩ resistance) placed in the stratum radiatum of the CA1 area, as previously described^34,35. One pathway of the Schaffer collateral/commissural fibers was stimulated (rectangular pulses of 0.1 ms duration) at every 15 s (for V/O curves, basal synaptic transmission and Paired-Pulse Facilitation (PPF) recordings) or every 20 s (for LTP recordings), by a bipolar concentric wire electrode placed on the Schaffer fibers in the stratum radiatum, in the CA1 area. The initial intensity of the stimulus was adjusted to obtain a submaximal fEPSP slope with a minimum population spike contamination, near one-fifth of the fEPSP slope obtained with supramaximal stimulation. The averages of eight consecutive fEPSPs were obtained and the slope of the initial phase of the potential was quantified. Recordings were obtained with an Axoclamp 2B amplifier (Axon Instruments, Foster City, CA), digitized and continuously stored on a personal computer with the LTP program 3. All the protocols detailed below were started only after a stable baseline of at least 20 minutes.
Long-Term Potentiation induction and saturation. A weak LTP-inducing θ-burst protocol consisting of four trains of 100 Hz, four stimuli, separated by 200 ms was used (4×4)^34,37. The intensity of the stimulus was never changed. LTP magnitude was quantified as the normalized change in the average slope of the fEPSP taken from 50 to 60 min after LTP induction in relation to the average slope of the fEPSP measured during the 10 min that preceded the induction of LTP.
For the experiments in FIG. 2, Brain-Derived Neurotrophic Factor (BDNF, 30 ng/ml) was added to the superfusing solution 20 min before the induction of LTP. Controls for these experiments were performed in different slices, without BDNF superfusion, on the same day. Generally, when testing BDNF effect on synaptic plasticity, two independent pathways of the same hippocampal slice are used, one serving as test and the other as internal control^35,38. However, because in the present experimental design slices were previously exposed to vehicle/Aβ for 3 h, we chose to test BDNF effect in different slices from the same rats. […]

Substance: BDNF: Brain-derived Neurotrophic Factor, supplied by Regeneron Pharmaceuticals
- BDNF effect on glutamate release after Aβ1-42 monomeric or fibrillar species (hippocampal synaptosomes; Aβ 200 nM monomers or fibrils, P<0.05): preserved
- BDNF effect on glutamate release after Aβ1-42 oligomeric species (hippocampal synaptosomes; Aβ 200 nM oligomers, P>0.05): impaired
- glutamate release, control conditions (hippocampal synaptosomes; P<0.01): boosted
- LTP magnitude, control conditions (hippocampal slices; BDNF 30 ng/ml): boosted
- BDNF effect on LTP after Aβ1-42 monomeric or fibrillar species (hippocampal slices; BDNF 30 ng/ml, Aβ 200 nM monomers or fibrils, P<0.05): preserved
- BDNF effect on LTP after Aβ1-42 oligomeric species (hippocampal slices; BDNF 30 ng/ml, Aβ 200 nM oligomers, P>0.05): impaired
- effect of exogenous BDNF on LTP in slices exposed to TAT-TrkB and Aβ oligomers (hippocampal slices; BDNF 30 ng/ml, TAT-TrkB 20 μM, Aβ 200 nM, P>0.05): did not boost LTP further

Substance: TrkB-Fc: recombinant human TrkB/Fc chimera, BDNF's scavenger [reference compound]
- effect on LTP in slices exposed to Aβ oligomers and TAT-TrkB (hippocampal slices; TrkB-Fc 2 μg/ml superfused from 30 min before LTP induction, TAT-TrkB 20 μM, P<0.05): counteracts the effect of TAT-TrkB on LTP reestablishment
